From article PMC3486708 (Journal of medicinal chemistry, 2012)

How the values were obtained:
[1] = test system: MC65 cells; test: Toxicity to MC65 cells in the presence of tetracycline; type: cell-based; conditions: median toxic concentration to MC65 cells, presence of TC
[2] = test system: ABCA1; test: ABCA1 gene expression in Huh-7 cells; type: cell-based, human; conditions: 24 h, compared to mock-treated cells
[3] = test system: MC65 cells; test: MC65 cell protection assay; type: cell-based; conditions: for protection of MC65 cell death (in words): MC65 cells, absence of TC

Row | Compound | TD50 [1] [µM] | expression of ABCA1 [2] | protection of MC65 cell death ([3]; up to 50 μM) | protection of MC65 cell death (in words) [3]
1 | Cc1cc2c(c(=O)o1)C=C1CC[C@H](C(C)CNCc3ccc(O)cc3)C[C@@H]1O2 (mixture of isomers) [Compound 2b, (5aS,7S)-3-Methyl-7-[(1R) and (1S)1-(4-hydroxybenzylamino)propan-2-yl]-1H,7H-5a,6,8,9-tetrahydro-1-oxopyrano[4,3-b][1]benzopyran] | 49.3 ± 0.127 | significantly increased | – | –
2 | Cc1cc2c(c(=O)o1)C=C1CC[C@H](C(C)CNCc3ccc(O)c(F)c3)C[C@@H]1O2 (stereo partly shown) [Compound 3f] | >50 | – | – | –
3 | CCCCCCCCCCC(C)(C)C(=O)Nc1c(OC)cc(OC)cc1OC [CI-976, reference compound] | – | significantly increased | inactive | –
4 | Cc1cc2c(c(=O)o1)C=C1CC[C@H](C(C)CNCc3ccc(CO)cc3)C[C@@H]1O2 (stereo partly shown) [Compound 2e] | >50 | – | – | –
5 | CC(=O)Oc1ccccc1C(=O)NCC(C)[C@H]1CCC2=Cc3c(cc(C)oc3=O)O[C@H]2C1 (stereo partly shown) [Compound 6a] | – | – | – | inactive
6 | Cc1cc2c(c(=O)o1)C=C1CC[C@H](C(C)Cn3cnc(N)c4ncnc3-4)C[C@@H]1O2 (stereo partly shown) [Compound 1] | 39.0 ± 1.12 | significantly increased | – | –
7 | Cc1cc2c(c(=O)o1)C=C1CC[C@H](C(C)CNCc3ccc(C#N)cc3)C[C@@H]1O2 (stereo partly shown) [Compound 2i] | – | – | – | abolishes the activity
8 | Cc1cc2c(c(=O)o1)C=C1CC[C@H](C(C)CNC(=O)c3ccccc3O)C[C@@H]1O2 (stereo partly shown) [Compound 6b] | – | – | – | poor activity
9 | Cc1cc2c(c(=O)o1)C=C1CC[C@H](C(C)CNCc3ccc(O)c4ccccc34)C[C@@H]1O2 (stereo partly shown) [Compound 4a] | 13.7 ± 0.704 | significantly increased | – | –
